Test results reported in patent US12653892B2, “Composition and method for new therapeutic agents including guanidinium-presenting dendrimers and branched structures” (priority 2020, dated 2026).
≈ marks a conversion by molar mass, not a printed value. Read-outs that look alike come from different tables or passages of the source.

What was measured:
S. aureus ATCC 29213 [1] = assay: MIC by broth microdilution, S. aureus ATCC 29213; assay type: cell-based; conditions: for MIC, Antibiotic +NH2-triguan-6C / MIC, Antibiotic +NO2-triamine-2C / MIC, Antibiotic +NO2-triamine-6C: non-covalent mixture
Procedure: (§1) Methods—Determination of MICs: MICs for S. aureus, E. faecium, E. coli, P aeruginosa, A. baumannii, K. pneumoniae were determined using broth microdilution in accordance with CLSI methods (Wiegand, I.; Hilpert, K.; Hancock, R. E. W. Agar and Broth Dilution Methods to Determine the Minimal Inhibitory Concentration (MIC) of Antimicrobial Substances. Nat. Protoc. 2008, 3, 163-175). One day prior to each MIC experiment, bacterial strains were streaked for single colonies on TSA plates from frozen glycerol stocks stored at −80° C. Three to five colonies from each plate were harvested with a disposable inoculating loop and resuspended in 500 μL of PBS to create a bacterial suspension. Alternatively, a single colony of the appropriate bacterial strain was added to 4 mL TSB for overnight growth at 37° C. with 200 rpm shaking to create a stationary phase bacterial suspension. The suspension was diluted in PBS to an OD600 of 0.1 (˜[…] CFU/ml), and the OD 0.1 suspension was diluted 1:100 in Mueller Hinton broth (MHB, Difco 257530) just prior to inoculating the 96-well polypropylene treatment plate (Costar 3879). A 50 μL portion of inoculum was added to a treatment plate containing 2-fold serial dilutions of compound in MHB (50 μL of treatment/well) to lend a final total volume of 100 μL/well and a final inoculum density of ˜5×10^5 CFU/ml. The completed assay plate was sealed with Parafilm, placed in a lidded plastic tray lined with moistened paper towels, and incubated at 37° C. for approximately 20 hours. The MIC was read as the lowest treatment concentration where no bacterial growth occurred, as determined by OD600 measurements on a microplate reader. If a different plate or media type was used for a particular test, this is noted below the respective table.

S. aureus ATCC 29213 [2] = conditions: cited from earlier work
S. aureus USA400 (MRSA) = assay: MIC by broth microdilution, S. aureus USA400 (MRSA); assay type: cell-based; conditions: Staphylococcus aureus
Procedure: as §1, with “A 50 μL portion of inoculum was added to a treatment plate containing 2-fold serial dilutions of compound in MHB (50 μL of treatment/well) to lend a final total volume of 100 μL/well and a final inoculum density of ˜5×10^5 CFU/ml. The completed assay plate was sealed with Parafilm, placed in a lidded plastic tray lined with moistened paper towels, and incubated at 37° C. for approximately 20 hours.” left out, “If a different plate or media type was used for a particular test, this is noted below the respective table.” left out

M. smegmatis = assay: MIC, resazurin readout, M. smegmatis; assay type: cell-based; conditions: Mycolicibacterium smegmatis
Procedure: (§2) MICs for C. glutamicum and the mycobacteria, M. smegmatis and M. abscessus, were determined as follows. A suspension of stationary phase culture was adjusted with PBS to approximately 10^8 CFU/mL and diluted 1:100 in nutrient media just prior to inoculating 96-well polystyrene treatment plates (Costar 3370). Nutrient media was Mueller Hinton Broth for C. glutamicum and Middlebrook media (Middlebrook 7H9 Broth with 0.2% glycerol and 10% OADC supplement, Difco, BD) for mycobacteria. A 50 μL portion of inoculum was added to a treatment plate containing 2-fold serial dilutions of compounds in the same media (50 μL of treatment/well) to lend a final total volume of 100 μL/well and a final inoculum density of ˜5×10^5 CFU/ml. The completed assay plate was sealed with Parafilm, placed in a lidded plastic tray lined with moistened paper towels, and incubated at 37° C. for around 22 h (C. glutamicum), 42-44 h (M. smegmatis) or 46-48 hours (M. abscessus). […] The MIC was identified as the lowest treatment concentration of drug that prevented color change of resazurin from blue to pink/violet, as determined by measuring fluorescence in a black microtiter plate with excitation at 570 nm and emission at 615 nm on a Molecular Devices M5 microplate reader.

M. abscessus = assay: MIC, resazurin readout, M. abscessus; assay type: cell-based; conditions: Mycobacteroides abscessus
Procedure: as §2

C. glutamicum = assay: MIC, resazurin readout, C. glutamicum; assay type: cell-based; conditions: Corynebacterium glutamicum
Procedure: as §2

E. coli ATCC 25922 = assay: MIC by broth microdilution, E. coli ATCC 25922; assay type: cell-based; conditions: Escherichia coli, ATCC25922
Procedure: as §1

E. coli UTI89 = assay: MIC by broth microdilution, E. coli UTI89; assay type: cell-based; conditions: Escherichia coli
Procedure: as §1, with “A 50 μL portion of inoculum was added to a treatment plate containing 2-fold serial dilutions of compound in MHB (50 μL of treatment/well) to lend a final total volume of 100 μL/well and a final inoculum density of ˜5×10^5 CFU/ml. The completed assay plate was sealed with Parafilm, placed in a lidded plastic tray lined with moistened paper towels, and incubated at 37° C. for approximately 20 hours.” left out, “If a different plate or media type was used for a particular test, this is noted below the respective table.” left out

[3] = test system: E. coli NCTC 13846 (colistin-resistant); assay: MIC by broth microdilution, E. coli NCTC 13846; assay type: cell-based; conditions: Escherichia coli, NCTC13846
Procedure: as §1, with “A 50 μL portion of inoculum was added to a treatment plate containing 2-fold serial dilutions of compound in MHB (50 μL of treatment/well) to lend a final total volume of 100 μL/well and a final inoculum density of ˜5×10^5 CFU/ml. The completed assay plate was sealed with Parafilm, placed in a lidded plastic tray lined with moistened paper towels, and incubated at 37° C. for approximately 20 hours.” left out, “If a different plate or media type was used for a particular test, this is noted below the respective table.” left out

E. coli BW25113 = assay: MIC by broth microdilution, E. coli BW25113; assay type: cell-based; conditions: Escherichia coli
Procedure: as §1, with “A 50 μL portion of inoculum was added to a treatment plate containing 2-fold serial dilutions of compound in MHB (50 μL of treatment/well) to lend a final total volume of 100 μL/well and a final inoculum density of ˜5×10^5 CFU/ml. The completed assay plate was sealed with Parafilm, placed in a lidded plastic tray lined with moistened paper towels, and incubated at 37° C. for approximately 20 hours.” left out, “If a different plate or media type was used for a particular test, this is noted below the respective table.” left out

E. coli BW25113ΔtolC = assay: MIC by broth microdilution, E. coli BW25113ΔtolC; assay type: cell-based; conditions: Escherichia coli
Procedure: as §1, with “A 50 μL portion of inoculum was added to a treatment plate containing 2-fold serial dilutions of compound in MHB (50 μL of treatment/well) to lend a final total volume of 100 μL/well and a final inoculum density of ˜5×10^5 CFU/ml. The completed assay plate was sealed with Parafilm, placed in a lidded plastic tray lined with moistened paper towels, and incubated at 37° C. for approximately 20 hours.” left out, “If a different plate or media type was used for a particular test, this is noted below the respective table.” left out

A. baumannii ATCC 19606 = assay: MIC by broth microdilution, A. baumannii ATCC 19606; assay type: cell-based; conditions: Acinetobacter baumannii, ATCC19606
Procedure: as §1, with “A 50 μL portion of inoculum was added to a treatment plate containing 2-fold serial dilutions of compound in MHB (50 μL of treatment/well) to lend a final total volume of 100 μL/well and a final inoculum density of ˜5×10^5 CFU/ml. The completed assay plate was sealed with Parafilm, placed in a lidded plastic tray lined with moistened paper towels, and incubated at 37° C. for approximately 20 hours.” left out, “If a different plate or media type was used for a particular test, this is noted below the respective table.” left out

K. pneumoniae BAA-2146 = assay: MIC by broth microdilution, K. pneumoniae BAA-2146; assay type: cell-based; conditions: Klebsiella pneumoniae, BAA2146
Procedure: as §1, with “A 50 μL portion of inoculum was added to a treatment plate containing 2-fold serial dilutions of compound in MHB (50 μL of treatment/well) to lend a final total volume of 100 μL/well and a final inoculum density of ˜5×10^5 CFU/ml. The completed assay plate was sealed with Parafilm, placed in a lidded plastic tray lined with moistened paper towels, and incubated at 37° C. for approximately 20 hours.” left out, “If a different plate or media type was used for a particular test, this is noted below the respective table.” left out

[4] = test system: S. aureus USA400 (MRSA), MW2; assay: Minimum Bacterial Eradication Concentration (MBEC) assay; assay type: cell-based
E. coli 25922 = assay: Time-kill kinetics against E. coli 25922 (FIG. 2); assay type: cell-based
[5] = S. aureus (ATCC 29213), Mueller Hinton Broth, polypropylene plate
[6] = Staphylococcus aureus, ATCC29213, 20 h, S. aureus (ATCC 29213), Mueller Hinton Broth, polypropylene plate, read-out: MIC, Antibiotic Alone
[7] = S. aureus (ATCC 29213), Mueller Hinton Broth, polypropylene plate, read-out: MIC, Antibiotic Alone
[8] = S. aureus (ATCC 29213), cation-adjusted MHB2, polystyrene microwell plate (Costar 3370)

Compound | MIC, Antibiotic +NH2-triguan-6C (S. aureus ATCC 29213 [1]; [5]) | MIC, Antibiotic +NO2-triamine-2C (S. aureus ATCC 29213 [1]; [5]) | MIC, Antibiotic +NO2-triamine-6C (S. aureus ATCC 29213 [1]; [5]) | MIC (S. aureus ATCC 29213 [1]; [6]) | MIC (S. aureus ATCC 29213 [1]; [7]) | Literature MIC (S. aureus ATCC 29213 [2]) | further results
O=C1CN(/N=C/c2ccc([N+](=O)[O-])o2)C(=O)N1 [Nitrofurantoin] | 128 µM (≈ 30.5 µg/mL) | 256 µM (≈ 61 µg/mL) | 256 µM (≈ 61 µg/mL) | 128 µM (≈ 30.5 µg/mL) | – | – | –
CC1(C)S[C@@H]2[C@H](NC(=O)Cc3ccccc3)C(=O)N2[C@H]1C(=O)O [Penicillin G] | 2 µM (≈ 0.669 µg/mL) | 4 µM (≈ 1.34 µg/mL) | 4 µM (≈ 1.34 µg/mL) | – | 2 µM (≈ 0.669 µg/mL) | 0.084 to 5.6 µM | –
CO[C@H]1/C=C/O[C@@]2(C)Oc3c(C)c(O)c4c(O)c(c(/C=N/N5CCN(C)CC5)c(O)c4c3C2=O)NC(=O)/C(C)=C\C=C\[C@H](C)[C@H](O)[C@@H](C)[C@@H](O)[C@@H](C)[C@H](OC(C)=O)[C@@H]1C [Rifampicin] | 0.016 µM (≈ 0.0132 µg/mL) | 0.016 µM (≈ 0.0132 µg/mL) | 0.016 µM (≈ 0.0132 µg/mL) | 0.016 µM (≈ 0.0132 µg/mL) | – | – | –
CN(C)[C@@H]1C(O)=C(C(N)=O)C(=O)[C@@]2(O)C(O)=C3C(=O)c4c(O)cccc4[C@@](C)(O)[C@H]3C[C@@H]12 [Tetracycline] | – | – | – | – | – | – | MIC, Antibiotic +NH2-triguan-6C (S. aureus ATCC 29213 [1]; [8]): 2 µM (≈ 0.889 µg/mL); MIC, Antibiotic +NO2-triamine-2C (S. aureus ATCC 29213 [1]; [8]): 2 µM (≈ 0.889 µg/mL); MIC, Antibiotic +NO2-triamine-6C (S. aureus ATCC 29213 [1]; [8]): 2 µM (≈ 0.889 µg/mL); MIC (S. aureus ATCC 29213 [1]; Staphylococcus aureus, ATCC29213, 20 h, S. aureus (ATCC 29213), cation-adjusted MHB2, polystyrene microwell plate (Costar 3370), read-out: MIC, Antibiotic Alone): 2 µM (≈ 0.889 µg/mL)
CN[C@H](CC(C)C)C(=O)N[C@H]1C(=O)N[C@@H](CC(N)=O)C(=O)N[C@H]2C(=O)N[C@H]3C(=O)N[C@H](C(=O)N[C@H](C(=O)O)c4cc(O)cc(O)c4-c4cc3ccc4O)[C@H](O)c3ccc(c(Cl)c3)Oc3cc2cc(c3O[C@@H]2O[C@H](CO)[C@@H](O)[C@H](O)[C@H]2O[C@H]2C[C@](C)(N)[C@H](O)[C@H](C)O2)Oc2ccc(cc2Cl)[C@H]1O [Vancomycin] | 1 µM (≈ 1.45 µg/mL) | 1 µM (≈ 1.45 µg/mL) | 0.5 to 1 µM | – | – | 0.34 to 1.4 µM | MIC (S. aureus ATCC 29213 [1]; Staphylococcus aureus, ATCC29213): 0.5 to 1 µM (≈ 0.725 to 1.45 µg/mL); MIC (S. aureus ATCC 29213 [1]; Staphylococcus aureus, ATCC29213, 20 h, read-out: MIC, Antibiotic Alone): 0.5 to 1 µM (≈ 0.725 to 1.45 µg/mL); MIC (S. aureus USA400 (MRSA)): 1 µM (≈ 1.45 µg/mL); MIC (M. smegmatis): 8 to 16 µM (≈ 11.6 to 23.2 µg/mL); MIC (M. abscessus): 64 µM (≈ 92.8 µg/mL); MIC (C. glutamicum): 0.25 µM (≈ 0.362 µg/mL); MIC (E. coli ATCC 25922): 128 µM (≈ 186 µg/mL); MIC (E. coli UTI89): 128 µM (≈ 186 µg/mL); MIC [3]: 64 to 128 µM (≈ 92.8 to 186 µg/mL); MIC (E. coli BW25113): 128 µM (≈ 186 µg/mL); MIC (E. coli BW25113ΔtolC): 128 to 256 µM (≈ 186 to 371 µg/mL); MIC (A. baumannii ATCC 19606): 128 µM (≈ 186 µg/mL); MIC (K. pneumoniae BAA-2146): > 256 µM; MBEC [4]: >512 µM; Concentration at which effective in time-kill (E. coli 25922): 256 µM
Gentamicin | 0.5 µM | 0.5 µM | 1 µM | – | 0.5 µM | 0.26 to 2.1 µM | –
